Results taken from ChEMBL document CHEMBL1201862, “PubChem BioAssay data set” (2004).
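Dose response: 5 concentrations. Exposure: 48 h. Format: 96-well plates. Endpoint: linear interpolation; highest concentration if not reached. At the GI50, growth is halved.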 Activity calls are given as the source filed them. Rule as the data show it: active = GI50 up to about 1.1 µM and inactive = higher.

Key:
Assay in all cases: NCI anticancer screen, dose series, 48 h
SF-268 = system: SF-268
K562 = system: K562
MOLT-4 = system: MOLT-4
HT-29 = system: HT-29
RXF 393 = system: RXF 393
SK-MEL-28 = system: SK-MEL-28
LOX IMVI = system: LOX IMVI
RPMI-8226 = system: RPMI-8226
EKVX = system: EKVX
U-251 = system: U-251
SF-295 = system: SF-295
SK-MEL-5 = system: SK-MEL-5
HCT-116 = system: HCT-116
MDA-N = system: MDA-N
IGROV-1 = system: IGROV-1
786-0 = system: 786-0
NCI-H226 = system: NCI-H226
NCI-H522 = system: NCI-H522
PC-3 = system: PC-3
UO-31 = system: UO-31

Measured: GI50

O=C1c2ccccc2CN1c1ccc(O)cc1
inactive: SF-268 > 100 µM | K562 > 100 µM | MOLT-4 > 100 µM | HT-29 > 100 µM | RXF 393 > 100 µM | SK-MEL-28 > 100 µM | LOX IMVI > 100 µM | RPMI-8226 > 100 µM | EKVX > 100 µM | U-251 > 100 µM | SF-295 > 100 µM | SK-MEL-5 > 100 µM | HCT-116 > 100 µM | MDA-N > 100 µM | IGROV-1 > 100 µM | 786-0 > 100 µM | NCI-H226 > 100 µM | NCI-H522 > 100 µM | PC-3 > 100 µM

O=C(CCCC(=O)N1CC(CCl)c2ccc([N+](=O)[O-])cc21)N1CC(CCl)c2ccc([N+](=O)[O-])cc21 (configuration not stated)
inactive: SF-268 > 100 µM | K562 > 100 µM | MOLT-4 > 100 µM | HT-29 > 100 µM | RXF 393 > 100 µM | SK-MEL-28 > 100 µM | LOX IMVI > 100 µM | RPMI-8226 43.7 µM | U-251 > 100 µM | SF-295 > 100 µM | SK-MEL-5 97.9 µM | HCT-116 > 100 µM | MDA-N > 100 µM | UO-31 > 100 µM | 786-0 > 100 µM | NCI-H226 > 100 µM | NCI-H522 71.4 µM | PC-3 > 100 µM

CN(C)c1ccc(-c2c(C#N)c(-c3ccccc3)n(NS(=O)(=O)c3ccccc3)c(=O)c2C#N)cc1
inactive: SF-268 56 µM | K562 49.1 µM | MOLT-4 20.7 µM | HT-29 76.7 µM | RXF 393 44 µM | SK-MEL-28 70.8 µM | LOX IMVI 37.4 µM | RPMI-8226 21.3 µM | EKVX 67.5 µM | U-251 50.7 µM | SF-295 41.7 µM | SK-MEL-5 20.4 µM | HCT-116 34.1 µM | MDA-N 68.1 µM | IGROV-1 40.8 µM | 786-0 69.5 µM | NCI-H226 > 100 µM | NCI-H522 58.3 µM | PC-3 26.9 µM

Cc1[nH]c2ccccc2c1/C=N/NC(=O)c1cccc(I)c1
inactive: SF-268 40.6 µM | K562 24.5 µM | MOLT-4 23.3 µM | HT-29 15.7 µM | RXF 393 17.5 µM | SK-MEL-28 22.7 µM | LOX IMVI 15.7 µM | RPMI-8226 19.9 µM | EKVX 12.2 µM | U-251 21.5 µM | SF-295 18.7 µM | SK-MEL-5 15.7 µM | HCT-116 22.9 µM | MDA-N 22.1 µM | IGROV-1 17.7 µM | UO-31 20.7 µM | 786-0 20.7 µM | NCI-H522 24.3 µM | PC-3 23 µM

O=C(N/N=C(COc1ccc(Cl)cc1)\N=C\c1ccncc1)c1ccncc1
inactive: SF-268 > 100 µM | K562 > 100 µM | MOLT-4 > 100 µM | HT-29 > 100 µM | RXF 393 57.1 µM | SK-MEL-28 > 100 µM | LOX IMVI > 100 µM | RPMI-8226 83.8 µM | EKVX > 100 µM | U-251 > 100 µM | SF-295 > 100 µM | HCT-116 > 100 µM | MDA-N > 100 µM | IGROV-1 > 100 µM | 786-0 > 100 µM | NCI-H226 > 100 µM | NCI-H522 84.5 µM | PC-3 > 100 µM

O=C(N/N=C(COc1cccc(Cl)c1)\N=C\c1cccnc1)c1ccncc1
inactive: SF-268 > 100 µM | K562 > 100 µM | MOLT-4 > 100 µM | HT-29 > 100 µM | RXF 393 35.3 µM | SK-MEL-28 > 100 µM | LOX IMVI > 100 µM | RPMI-8226 > 100 µM | EKVX > 100 µM | U-251 > 100 µM | SF-295 > 100 µM | HCT-116 > 100 µM | MDA-N > 100 µM | IGROV-1 > 100 µM | 786-0 > 100 µM | NCI-H226 93.5 µM | NCI-H522 63.7 µM | PC-3 > 100 µM

O=S(=O)(O)c1ccc(/N=N/c2ccc(/N=N/c3c(O)c(S(=O)(=O)O)cc4cc(S(=O)(=O)O)ccc34)cc2)cc1
inactive: SF-268 > 100 µM | K562 > 100 µM | MOLT-4 > 100 µM | HT-29 > 100 µM | RXF 393 > 100 µM | SK-MEL-28 > 100 µM | RPMI-8226 > 100 µM | EKVX > 100 µM | U-251 > 100 µM | SF-295 > 100 µM | SK-MEL-5 > 100 µM | HCT-116 > 100 µM | MDA-N > 100 µM | IGROV-1 > 100 µM | UO-31 > 100 µM | 786-0 > 100 µM | NCI-H226 > 100 µM | NCI-H522 > 100 µM | PC-3 > 100 µM

CC(C)(C)C(=O)CP(=O)(O)O
inactive: SF-268 > 100 µM | K562 > 100 µM | MOLT-4 > 100 µM | HT-29 > 100 µM | RXF 393 > 100 µM | SK-MEL-28 > 100 µM | LOX IMVI > 100 µM | RPMI-8226 > 100 µM | EKVX > 100 µM | U-251 > 100 µM | SF-295 > 100 µM | SK-MEL-5 > 100 µM | HCT-116 > 100 µM | MDA-N > 100 µM | IGROV-1 > 100 µM | 786-0 > 100 µM | NCI-H226 > 100 µM | NCI-H522 > 100 µM | PC-3 > 100 µM

NS(=O)(=O)c1ccc(CNc2nc(-c3cccs3)nc3ccc(I)cc23)cc1
inactive: SF-268 23.1 µM | MOLT-4 21.9 µM | HT-29 19.4 µM | RXF 393 19.6 µM | SK-MEL-28 21.3 µM | LOX IMVI 14.8 µM | RPMI-8226 18.6 µM | EKVX 3.85 µM | U-251 18.1 µM | SF-295 17.9 µM | SK-MEL-5 14.1 µM | HCT-116 14.9 µM | MDA-N 19.5 µM | IGROV-1 12.2 µM | UO-31 2.11 µM | 786-0 17.5 µM | NCI-H226 17.9 µM | NCI-H522 14.7 µM | PC-3 19.4 µM

COc1cc2c(cc1OCCCN1CCOCC1)N=C[C@@H]1CCCN1C2=O
inactive: SF-268 7.53 µM | K562 4.73 µM | MOLT-4 4.91 µM | HT-29 8.79 µM | RXF 393 2.75 µM | SK-MEL-28 12.6 µM | LOX IMVI 4.48 µM | RPMI-8226 2.21 µM | EKVX 19.4 µM | U-251 4.41 µM | SF-295 9.59 µM | SK-MEL-5 4.07 µM | HCT-116 12.8 µM | MDA-N 6.89 µM | UO-31 11.5 µM | 786-0 4.16 µM | NCI-H226 4.66 µM | NCI-H522 1.25 µM | PC-3 18.6 µM
